{"source": "paper PMC7391777", "about": "“Inhibition of acetyl-CoA carboxylase by spirotetramat causes growth arrest and lipid depletion in nematodes” (Scientific Reports, 2020)", "molecular_target": "T1, C. elegans ACC (POD-2) (Caenorhabditis elegans, UniProt H2L0M0)", "T1 construct": "native enzyme in total protein extract of C. elegans pellet, not purified", "T1 sequence (H2L0M0 1-2165)": "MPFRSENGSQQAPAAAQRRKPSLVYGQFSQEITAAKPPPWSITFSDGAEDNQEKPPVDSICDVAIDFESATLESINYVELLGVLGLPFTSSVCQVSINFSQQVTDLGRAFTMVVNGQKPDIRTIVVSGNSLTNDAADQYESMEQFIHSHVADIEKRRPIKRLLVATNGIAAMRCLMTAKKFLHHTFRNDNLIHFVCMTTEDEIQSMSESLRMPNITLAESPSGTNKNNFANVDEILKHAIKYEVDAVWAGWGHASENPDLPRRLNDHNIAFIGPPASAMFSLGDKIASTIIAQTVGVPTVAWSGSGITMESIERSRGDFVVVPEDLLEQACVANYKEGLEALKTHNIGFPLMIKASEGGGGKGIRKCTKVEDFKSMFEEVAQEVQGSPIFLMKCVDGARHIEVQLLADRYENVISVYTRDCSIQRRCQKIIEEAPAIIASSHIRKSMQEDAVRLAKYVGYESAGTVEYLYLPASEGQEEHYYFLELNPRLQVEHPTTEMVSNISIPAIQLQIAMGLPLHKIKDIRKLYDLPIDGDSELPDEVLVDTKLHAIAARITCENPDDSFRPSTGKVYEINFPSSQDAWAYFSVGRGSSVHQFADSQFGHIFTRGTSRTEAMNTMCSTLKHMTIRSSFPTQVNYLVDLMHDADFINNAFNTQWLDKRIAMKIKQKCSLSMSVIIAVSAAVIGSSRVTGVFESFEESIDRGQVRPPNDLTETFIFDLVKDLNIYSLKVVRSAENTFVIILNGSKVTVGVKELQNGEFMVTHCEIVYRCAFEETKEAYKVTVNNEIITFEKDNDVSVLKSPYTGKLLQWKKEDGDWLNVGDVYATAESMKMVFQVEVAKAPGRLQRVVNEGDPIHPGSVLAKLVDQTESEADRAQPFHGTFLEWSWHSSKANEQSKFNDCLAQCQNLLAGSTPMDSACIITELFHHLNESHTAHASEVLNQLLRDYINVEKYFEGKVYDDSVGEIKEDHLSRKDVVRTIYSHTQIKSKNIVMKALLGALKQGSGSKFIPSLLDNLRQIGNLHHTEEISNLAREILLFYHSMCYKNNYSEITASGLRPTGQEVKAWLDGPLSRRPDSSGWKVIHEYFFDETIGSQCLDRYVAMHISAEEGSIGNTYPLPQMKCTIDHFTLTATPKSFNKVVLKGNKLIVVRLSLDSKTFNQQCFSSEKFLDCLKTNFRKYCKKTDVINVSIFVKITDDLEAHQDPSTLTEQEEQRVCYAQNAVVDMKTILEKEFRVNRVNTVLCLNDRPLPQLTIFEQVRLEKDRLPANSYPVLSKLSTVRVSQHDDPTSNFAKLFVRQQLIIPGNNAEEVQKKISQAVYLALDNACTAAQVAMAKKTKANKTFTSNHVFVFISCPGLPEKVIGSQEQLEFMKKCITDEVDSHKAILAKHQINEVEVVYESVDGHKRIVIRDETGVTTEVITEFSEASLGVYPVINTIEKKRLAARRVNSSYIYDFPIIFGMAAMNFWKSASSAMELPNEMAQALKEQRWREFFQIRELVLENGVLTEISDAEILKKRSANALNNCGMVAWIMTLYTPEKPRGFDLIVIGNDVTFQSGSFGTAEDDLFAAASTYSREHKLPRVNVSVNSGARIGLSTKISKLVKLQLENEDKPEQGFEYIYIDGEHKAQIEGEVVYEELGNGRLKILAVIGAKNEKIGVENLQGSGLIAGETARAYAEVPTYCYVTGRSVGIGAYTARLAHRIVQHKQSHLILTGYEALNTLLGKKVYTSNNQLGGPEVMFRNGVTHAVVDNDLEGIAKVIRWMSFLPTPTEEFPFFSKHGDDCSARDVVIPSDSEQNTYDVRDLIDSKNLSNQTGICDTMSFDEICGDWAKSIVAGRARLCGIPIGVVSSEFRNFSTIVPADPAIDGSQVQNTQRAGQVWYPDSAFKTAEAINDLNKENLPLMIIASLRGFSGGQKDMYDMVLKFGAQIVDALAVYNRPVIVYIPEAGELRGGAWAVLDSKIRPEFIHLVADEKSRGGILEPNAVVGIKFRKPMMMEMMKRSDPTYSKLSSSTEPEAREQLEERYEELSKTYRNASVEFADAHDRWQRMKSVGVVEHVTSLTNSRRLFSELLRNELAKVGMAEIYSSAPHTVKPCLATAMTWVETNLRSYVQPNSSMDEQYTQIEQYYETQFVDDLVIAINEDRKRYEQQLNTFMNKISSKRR", "test": "ACC activity in total protein extract, radiolabeled sodium bicarbonate", "assay_type": "biochemical", "settings": "total protein extract of C. elegans", "data": [{"smiles": "COC1CCC2(CC1)NC(=O)C(c1cc(C)ccc1C)=C2O", "note": "(stereo not shown) [SPT-enol]", "values": [{"measurement": "IC50", "result": 50, "unit": "µM"}]}]}
